Read-outs that look alike come from different tables or passages of the source.
Target: T1, WT transketolase (WT TK) (Escherichia coli, UniProt P27302)
T1 construct: gene tktA; full length, N-terminal His6 tag (plasmid pQR791), Ni-NTA purified, tag cleavage not mentioned; homodimer of 73-74 kDa monomers; WT expressed in E. coli XL10-Gold, variants in E. coli C321.dA.exp
Experiment: HPLC of erythrulose formation, initial velocities, Michaelis-Menten fit
Format: biochemical
Settings: 50 mM HPA, 1.36 mM ThDP, 5.1 mM MgCl2, 33 mM Tris.HCl, pH 7.0, assay 21 °C, pre-incubated 15 min at 21 °C, standard error in parentheses, read-out: Km (GA)
From the text: HPLC of erythrulose formation, initial velocities, Michaelis-Menten fit on WT transketolase (WT TK)

T1 sequence (P27302 whole entry): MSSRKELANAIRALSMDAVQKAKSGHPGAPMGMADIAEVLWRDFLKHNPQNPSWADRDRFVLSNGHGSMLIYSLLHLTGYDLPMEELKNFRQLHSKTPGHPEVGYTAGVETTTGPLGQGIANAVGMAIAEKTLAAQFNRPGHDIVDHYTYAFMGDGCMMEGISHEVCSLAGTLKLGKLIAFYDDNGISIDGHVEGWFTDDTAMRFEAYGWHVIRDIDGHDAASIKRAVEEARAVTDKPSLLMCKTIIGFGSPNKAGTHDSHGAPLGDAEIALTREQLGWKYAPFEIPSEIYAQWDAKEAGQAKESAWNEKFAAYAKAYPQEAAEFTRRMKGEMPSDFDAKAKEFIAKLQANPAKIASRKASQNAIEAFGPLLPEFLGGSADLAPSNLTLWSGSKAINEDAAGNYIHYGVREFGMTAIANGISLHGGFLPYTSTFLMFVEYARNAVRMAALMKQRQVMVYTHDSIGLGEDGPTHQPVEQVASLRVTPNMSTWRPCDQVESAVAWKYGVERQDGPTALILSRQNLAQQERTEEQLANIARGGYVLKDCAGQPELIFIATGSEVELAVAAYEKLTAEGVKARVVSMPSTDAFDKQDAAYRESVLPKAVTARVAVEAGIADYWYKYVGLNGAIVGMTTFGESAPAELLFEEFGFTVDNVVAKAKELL

Km (non-natural amino acid at 316, 84% incorporation with 9% K316F): 14 mM
Km (non-natural amino acid at 316, almost 100% incorporation): 18 mM
SMILES: O=CCO [GA]
